ChEMBL document CHEMBL4308897, “Antileishmanial activity and cytotoxicity of ent-beyerene diterpenoids” (Bioorg Med Chem, 2019)

How the values were obtained:
[1] = Selectivity index, ratio of LC50 for human U937 cells to EC50 for Leishmania (Viannia) braziliensis HMOM/COL/88/UA301-EGFP intracellular amastigotes infected in human U937 cells; format: toxicity, cell-based; details: read-out: Selectivity Index
[2] = Cytotoxicity against human U937 cells after 72 hrs by MTT assay; format: cell-based, U-937; details: read-out: LC50
Leishmania braziliensis = assay: Antileishmanial activity against Leishmania (Viannia) braziliensis HMOM/COL/88/UA301-EGFP intracellular amastigotes infected in human U937 cells after 72 hrs by flow cytometric analysis; format: functional, organism-based; details: HMOM/COL/88/UA301, U-937, 72 h

Row | SMILES | selectivity ratio [1] | CC50 at 72 h [2] [µM] | EC50 (Leishmania braziliensis) [µM]
1 | Cc1ccc(S(=O)(=O)N/N=C2/C[C@]34CC[C@H]5[C@@](C)(CCC[C@@]5(C)C(=O)O)[C@@H]3CC[C@@]2(C)C4)cc1 | 3.1 | 5.9 | 2.3
2 | C[C@]12C=C[C@@]3(CC[C@H]4[C@@](C)(CCC[C@@]4(C)C(=O)O)[C@@H]3CC1)C2 [MONOGINOIC ACID] | > 2 | 130 | > 66
3 | C[C@@H]1[C@H](O)[C@@H](C)/C=C/C=C/C=C/C=C/C=C/C=C/C=C/[C@H](O[C@@H]2O[C@H](C)[C@@H](O)[C@H](N)[C@@H]2O)C[C@@H]2O[C@](O)(C[C@@H](O)C[C@@H](O)[C@H](O)CC[C@@H](O)C[C@@H](O)CC(=O)O[C@H]1C)C[C@H](O)[C@H]2C(=O)O [AMPHOTERICIN B] | 71.8 | 54.4 | 0.8
4 | C[C@@]12CC[C@@H]3[C@@](CC[C@@H]4[C@](C)(CO)CCC[C@]43C)(CC1)C2 | 1.6 | 29.6 | 18.1
5 | C[C@@]12CC[C@@H]3[C@@](CC[C@H]4[C@@]3(C)CCC[C@@]4(C)C(=O)O)(CC1=O)C2 [ISOSTEVIOL] | > 3.3 | 66.9 | > 20
6 | CCOC(=O)[C@]1(C)CCC[C@@]2(C)[C@@H]3CC[C@@]4(C)C[C@]3(CC[C@@H]21)C/C4=N/NS(=O)(=O)c1ccc(C)cc1 | 3.5 | 8.8 | 3
7 | CCOC(=O)[C@]1(C)CCC[C@@]2(C)[C@@H]3CC[C@@]4(C)C[C@]3(CC[C@@H]21)C/C4=N/O | 1.8 | 15.7 | 8.8
8 | C[C@]12CC[C@H]3[C@]4(C)CCC[C@@](C)(CO)[C@H]4CC[C@@]3(C1)[C@H]1O[C@H]12 | > 1.9 | 118 | > 63
9 | CCOC(=O)[C@]1(C)CCC[C@@]2(C)[C@@H]3CC[C@@]4(C)C[C@]3(CC[C@@H]21)CC4=O | 0.86 | 51.9 | 36.3
10 | C[C@]12CC[C@H]3[C@]4(C)CCC[C@@](C)(C(=O)O)[C@H]4CC[C@@]3(C1)[C@H]1O[C@H]12 | 1.5 | 64.8 | 43.3
11 | CCOC(=O)[C@]1(C)CCC[C@@]2(C)[C@@H]3CC=C(C)C[C@@]3(CC#N)CC[C@@H]21 | 0.6 | 9.1 | 14.1
12 | CCOC(=O)[C@]1(C)CCC[C@@]2(C)[C@@H]3CC[C@@]4(C)C[C@]3(CC[C@@H]21)C[C@H]4O | 1.4 | 28.8 | 13.6
